The values below come from ChEMBL document CHEMBL4002577, “Phenylthiazole antibiotics: A metabolism-guided approach to overcome short duration of action” (Eur J Med Chem, 2017).

Data set [1] deals with Staphylococcus aureus. Description: Antibacterial activity against methicillin-resistant Staphylococcus aureus 2658 RCMB after 18 to 20 hrs by broth microdilution method. Format: functional. Background: Broth dilution looks for growth in wells or tubes with falling amounts of substance.
The subject of data set [2] is Staphylococcus aureus. Description: Antibacterial activity against mupirocin/rifampicin-resistant Staphylococcus aureus RN4220 NRS107 clinical isolate after 18 to 20 hrs by broth microdilution method. The format is functional.
Data set [3] relates to Staphylococcus aureus. Description: Antibacterial activity against methicillin/ciprofloxacin/gentamicin/clindamycin-resistant Staphylococcus aureus USA200 NRS383 clinical isolate after 18 to 20 hrs by broth microdilution method. The format is functional.
Data set [4] has as its system Staphylococcus aureus. Description: Antibacterial activity against methicillin-resistant Staphylococcus aureus USA400 NRS123 clinical isolate after 18 to 20 hrs by broth microdilution method. The format is functional.
For data set [5], the system named is Staphylococcus aureus. Description: Antibacterial activity against methicillin/ciprofloxacin/clindamycin-resistant Staphylococcus aureus USA100 NRS382 clinical isolate after 18 to 20 hrs by broth microdilution method. The format is functional.
Data set [6] has as its system Staphylococcus aureus. As to the kind of experiment: Antibacterial activity against methicillin/erythromycin/tetracycline-resistant Staphylococcus aureus USA300 NRS384 clinical isolate after 18 to 20 hrs by broth microdilution method. Format: functional.
For data set [7], the system named is Staphylococcus aureus. Description: Antibacterial activity against vancomycin-resistant Staphylococcus aureus VRSA4 clinical isolate after 18 to 20 hrs by broth microdilution method. Format: functional.
Data set [8] has as its system Staphylococcus aureus. Description: Antibacterial activity against vancomycin-resistant Staphylococcus aureus VRSA10 clinical isolate after 18 to 20 hrs by broth microdilution method. The format is functional.
The subject of data set [9] is Staphylococcus aureus. As to the kind of experiment: Bactericidal activity against mupirocin/rifampicin-resistant Staphylococcus aureus RN4220 NRS107 clinical isolate after 24 hrs. The conditions noted are these: RN4220 NRS107, 24 h. Format: functional.
The test system of data set [10] is Staphylococcus aureus. As to the kind of experiment: Bactericidal activity against methicillin/ciprofloxacin/gentamicin/clindamycin-resistant Staphylococcus aureus USA200 NRS383 clinical isolate after 24 hrs. The format is functional. The conditions noted are these: USA200 NRS383, 24 h.
In data set [11] the test system is Staphylococcus aureus. As to the kind of experiment: Bactericidal activity against methicillin-resistant Staphylococcus aureus USA400 NRS123 clinical isolate after 24 hrs. The conditions noted are these: USA400 NRS123, 24 h. Format: functional.
The test system of data set [12] is Staphylococcus aureus. As to the kind of experiment: Bactericidal activity against methicillin/ciprofloxacin/clindamycin-resistant Staphylococcus aureus USA100 NRS382 clinical isolate after 24 hrs. The format is functional. The conditions noted are these: USA100 NRS382, 24 h.
The subject of data set [13] is Staphylococcus aureus. As to the kind of experiment: Bactericidal activity against methicillin/erythromycin/tetracycline-resistant Staphylococcus aureus USA300 NRS384 clinical isolate after 24 hrs. The format is functional. The conditions noted are these: USA300 NRS384, 24 h.
Data set [14] has as its system Staphylococcus aureus. As to the kind of experiment: Bactericidal activity against vancomycin-resistant Staphylococcus aureus VRSA4 clinical isolate after 24 hrs. Format: functional. The conditions noted are these: VRSA4, 24 h.
Data set [15] deals with Staphylococcus aureus. Description: Bactericidal activity against vancomycin-resistant Staphylococcus aureus VRSA10 clinical isolate after 24 hrs. The format is functional. The conditions noted are these: VRSA10, 24 h.
Data set [16] has as its system Staphylococcus aureus. As to the kind of experiment: Bactericidal activity against methicillin-resistant Staphylococcus aureus USA400 NRS123 clinical isolate assessed as time required to reduce 4 log10CFU of bacterial load at 4 times MIC by time kill assay. The format is functional.
Data set [17] has as its system Staphylococcus aureus. As to the kind of experiment: Bactericidal activity against methicillin-resistant Staphylococcus aureus USA400 NRS123 clinical isolate assessed as reduction of bacterial load at 4 times MIC after 48 hrs by time kill assay. Format: functional.
Data set [18] deals with HaCaT. As to the kind of experiment: Cytotoxicity against human HaCaT cells assessed as decrease in cell viability up to 16 ug/ml after 2 hrs by MTS assay. Format: cell-based. (Tetrazolium assays rely on reduction of a dye to a coloured formazan, in cell work by metabolically active cells.)
For data set [19], the system named is HaCaT. Description: Cytotoxicity against human HaCaT cells assessed as decrease in cell viability up to 8 ug/ml after 2 hrs by MTS assay. The format is cell-based.
Another data set relates to J774. As to the kind of experiment: Cytotoxicity against mouse J774 cells assessed as decrease in cell viability at 8 ug/ml after 2 hrs by MTS assay. Format: cell-based. The conditions noted are these: j774, 2 h.
The test system of data set [20] is Staphylococcus aureus. Description: Potentiation of vancomycin-mediated antibacterial activity against vancomycin-resistant Staphylococcus aureus VRSA4 clinical isolate assessed as reduction in vancomycin MIC at 0.5 times MIC preincubated for 30 mins followed by vancomycin addition measured after 20 to 22 hrs relative to control. Format: functional.
Data set [21] deals with Staphylococcus aureus. As to the kind of experiment: Potentiation of vancomycin-mediated antibacterial activity against vancomycin-resistant Staphylococcus aureus VRSA10 clinical isolate assessed as vancomycin MIC at 0.5 times MIC preincubated for 30 mins followed by vancomycin addition measured after 20 to 22 hrs (reference value: 512 ug/ml). The format is functional.

Converted amounts (≈) assume the structure as drawn. The source made the active and inactive calls. Bounds are passed on as bounds.

Consider `CCCCCCCCOc1ccc(-c2nc(C)c(/C(C)=N/NC(=N)N)s2)cc1`, for which the MIC (as a rule, the smallest concentration in the dilution series that meets the test's criterion for growth inhibition) against Staphylococcus aureus [1] is 15.6 µg/mL (≈ 38.9 µM); with Staphylococcus aureus [2], 4 µg/mL (≈ 9.96 µM); in the data set with Staphylococcus aureus [3], 1 µg/mL (≈ 2.49 µM); in the data set on Staphylococcus aureus [4] it was 4 µg/mL (≈ 9.96 µM); against Staphylococcus aureus [5] it was 2 µg/mL (≈ 4.98 µM); in the data set on Staphylococcus aureus [6] it was 4 µg/mL (≈ 9.96 µM). Also, the MIC against Staphylococcus aureus [7] and in the data set on Staphylococcus aureus [8] was 4 µg/mL (≈ 9.96 µM) throughout. For the same compound, the MBC – broadly, the smallest concentration meeting the test's criterion for killing – was 8 µg/mL (≈ 19.9 µM) in the data set with Staphylococcus aureus [9]; 2 µg/mL (≈ 4.98 µM) against Staphylococcus aureus [10]; 8 µg/mL (≈ 19.9 µM) against Staphylococcus aureus [11]; 2 µg/mL (≈ 4.98 µM) against Staphylococcus aureus [12]; 4 µg/mL (≈ 9.96 µM) in the data set on Staphylococcus aureus [13]; 4 µg/mL (≈ 9.96 µM) against Staphylococcus aureus [14]. The same compound registered an MBC in the data set on Staphylococcus aureus [15] of 4 µg/mL (≈ 9.96 µM). In the data set with Staphylococcus aureus [16], the Time result is reported as “<=2 hr”. In the data set with Staphylococcus aureus [17], the outcome was Active. The Activity entry in the data set with HaCaT [18] was “Non-Toxic”.
Consider `CCCCCCCOc1ccc(-c2nc(C)c(/C(C)=N/NC(=N)N)s2)cc1`, for which the MIC is 0.74 µg/mL (≈ 1.91 µM) against Staphylococcus aureus [1]; 2 µg/mL (≈ 5.16 µM) in the data set with Staphylococcus aureus [2]; 0.5 µg/mL (≈ 1.29 µM) with Staphylococcus aureus [3]; 2 µg/mL (≈ 5.16 µM) in the data set on Staphylococcus aureus [4]; 1 µg/mL (≈ 2.58 µM) against Staphylococcus aureus [5]; 2 µg/mL (≈ 5.16 µM) against Staphylococcus aureus [6]. Also, the values for the MIC against Staphylococcus aureus [7], against Staphylococcus aureus [8] and with Staphylococcus aureus [21] were 2 µg/mL (≈ 5.16 µM), 2 µg/mL (≈ 5.16 µM) and over 128 µg/mL, respectively. Also, the MBC stood at 2 µg/mL (≈ 5.16 µM) against Staphylococcus aureus [9]; 1 µg/mL (≈ 2.58 µM) in the data set with Staphylococcus aureus [10]; 4 µg/mL (≈ 10.3 µM) with Staphylococcus aureus [11]; 1 µg/mL (≈ 2.58 µM) with Staphylococcus aureus [12]; 2 µg/mL (≈ 5.16 µM) with Staphylococcus aureus [13]; 2 µg/mL (≈ 5.16 µM) with Staphylococcus aureus [14]. The compound also registered an MBC in the data set with Staphylococcus aureus [15] of 2 µg/mL (≈ 5.16 µM). Further, the results for the Activity entry with HaCaT [19] and in the data set with J774 were “Non-Toxic” and “Toxic”, respectively. Further, the “fold change (FC)” value with Staphylococcus aureus [20] came out at 4.
